This is an account of results in patent publication US20240245680A1, “Methods of Treating Retinal Vasculopathies” (Unity Biotechnology, Inc., priority 2021, published 2024).

Molecules are shown by their SMILES. “Also recorded” adds a separate entry of the source.

Assay [1] deals with DDIT3 expression. The assay is described as follows: DDIT3 gene expression (qPCR) in HRMEC. Type of assay: cell-based, human. The note with it: five hours, quarter-log dilutions from 10 μM, qPCR (FIG. 10C). The method, then: Primary Human Retinal Microvascular Endothelial Cells (HRMEC—Cell Systems™ Corp., ACBRI 181; Lot #181.04.02.02.02) were cultured in Vascular Cell Basal Medium (ATCC® Lot 90909277) with Endothelial Cell Growth Kit-VEGF (ATCC Lot 80720201) with additional FBS added to a final concentration of 5% FBS. Cells were seeded in a 96-well plate at near confluency and treated the next day with Compound 39 for five hours. A dose response was generated using quarter-log dilutions using 10 μM as the starting concentration. Following treatment, RNA was extracted using the RNeasy® 96-Kit (Qiagen®), and cDNA was next generated using Superscript™ IV VILO™ Master Mix (Thermofisher®). qPCR was performed using standard TaqMan® reagents and conditions. DDTI3 gene expression was detected using primer Hs00358796_g1 and Tbp was used as a control gene using primer (Hs99999910_m1). Peak activation of DDIT3 expression was detected at ˜250 nM Compound 39.

Assay [2] concerns OIR mouse model. The assay is described as follows: Oxygen-induced retinopathy (OIR) mouse model, retinal flatmounts at P17. Type of assay: in vivo. The note with it: OIR pups, two 90 mpk intraperitoneal doses (P12 and P14), read at P17 (FIG. 14A, 15B). An excerpt:
The OIR model is based on the exposure of mouse pups to hyperoxia during a phase when their retinal vasculature is still developing. This leads to capillary depletion, and upon return to room air, results in retinal ischemia and proliferative vascular disease in the retinal vasculature or oxygen-induced retinopathy.
C57BL/6J pups at postnatal day 7 (P7) are housed in a hyperoxic chamber (75% O2) for 5 days (n=10 per cage) leading to vessel regression in the center of the retina. CD-1 fostering mothers are rotated before and 2-3 days after entering the chamber. […]
Retinas are dissected and incubated overnight with rhodamine-labeled lectin from Bandeiraea simplicifolia (Griffonia simplicifolia) (1:100) in 1 mM CaCl2) in PBS to visualize vaso-obliterated (VO) or neovascular (NV) areas. […] Images can be analyzed on Visiopharm® to determine % VO or % NV of total retina. […]
Avascular areas and areas of neovascularization were quantified after harvest and staining of retinal flatmounts at P17 in the model.
OIR pups were treated with intraperitoneal injection of 90 mpk Compound 39 at P12, then these pups were removed to room air with their nursing mothers, repeat dosed at P14, and were sacrificed at P17. […] To determine avascular or neovascular areas, retinas were flatmounted, and stained with isolectin B4 (IB4) for fluorescence microscopy. […]

In the case of `CNc1nc2ccc(-c3c(C)ccc(C(=O)c4c(-c5ccccc5)n(C)n(-c5ccccc5)c4=O)c3N)cc2s1` [Compound 39, 4-(2-Amino-4-methyl-3-(2-(methylamino)benzo[d]thiazol-6-yl)benzoyl)-1-methyl-2,5-diphenyl-1H-pyrazol-3(2H)-one], the “concentration of peak activation of DDIT3 expression” value in assay [1] was roughly 250 nM. For the same compound, the neovascularization result in assay [2] is reported as “significant reversal; also recorded: significantly suppressed”.
